Assays:
[1] = Simulated wound matrix disruption on 96-peg lid, test solutions (Example 1); conditions: for % Difference in Efficacy (chelators) / % Difference in Efficacy (surfactants): 1% w/w solution, 37° C., 1 hour, absorbance at 595 nm, with respect to 1% w/w benzethonium chloride aqueous solution; for efficacy relative to benzalkonium chloride, cocoamidopropyl betaine and Poloxamer 188 / efficacy in disrupting the simulated test wound matrix relative to SLS: 1% w/w; for efficacy in disrupting the simulated test wound matrix relative to SLS: compared with SLS
Protocol: The following examples are prepared and evaluated using a simulated wound matrix composition. A wound matrix is prepared to contain:
The pegs are dipped into the simulated wound matrix and immediately transferred to a calcium chloride bath to achieve cross-linking. Solutions of test materials are prepared at 1% w/w in a 96 well microtiter plate. Following crosslinking, the pegs are inserted into the wells and incubated at 37° C. for 1 hour. Efficacy is characterised by the change in colour of the test solutions resulting from disruption of the stained material and is quantified by reading the absorbance of each solution at 595 nm. Results are presented with respect to a 1% w/w benzethonium chloride aqueous solution.

[2] = AKZO Nobel published values using modified Davies HLB group numbers; cited from earlier work

O=C(O)CC(O)(CC(=O)O)C(=O)O [Citric Acid]
% Difference in Efficacy (chelators) [1]: +50%

Cocoamidopropyl betaine
% Difference in Efficacy (surfactants) [1]: +120%

CCCCCCCCCCCCOS(=O)(=O)[O-].[Na+] [Sodium Dodecyl Sulphate, reference compound]
HLB Value [2]: 33.0
% Difference in Efficacy (surfactants) [1]: −99%

O=P([O-])(O)O.[Na+] [Sodium Di-hydrogen Phosphate]
% Difference in Efficacy (chelators) [1]: −70%

O=C([O-])CC(O)(CC(=O)[O-])C(=O)[O-].[Na+].[Na+].[Na+] [Tris-odium Citrate]
% Difference in Efficacy (chelators) [1]: +1750%

O=C([O-])C(=O)[O-].[K+].[K+] [Potassium Oxalate]
% Difference in Efficacy (chelators) [1]: +1350%

Poloxamer 188 [reference compound]
HLB Value [2]: 3.4
% Difference in Efficacy (surfactants) [1]: −90%

CCCCCCCC/C=C\CCCCCCCC(=O)[O-].[Na+] [Sodium Oleate]
HLB Value [2]: 10.55
efficacy relative to benzalkonium chloride, cocoamidopropyl betaine and Poloxamer 188 [1]: an order of magnitude greater
% Difference in Efficacy (surfactants) [1]: +996%
efficacy in disrupting the simulated test wound matrix relative to SLS [1]: an order of magnitude greater

Sodium Laureth-2 Sulphate
HLB Value [2]: 15.3
% Difference in Efficacy (surfactants) [1]: −30%

Benzalkonium Chloride [reference compound]
% Difference in Efficacy (surfactants) [1]: +60%

Di-sodium Lauryl Sulfosuccinate
efficacy relative to benzalkonium chloride, cocoamidopropyl betaine and Poloxamer 188 [1]: an order of magnitude greater
% Difference in Efficacy (surfactants) [1]: +844%
efficacy in disrupting the simulated test wound matrix relative to SLS [1]: an order of magnitude greater

Source: US12508342B2, “Debridement composition” (priority 2020, dated 2025)
